This passage reports IC50 and melting point results from patent US20070149570A1, “Piperidine derivative and use thereof” (priority 2005, published 2007).

A word on the melting point: it is the temperature of the solid-liquid transition.

Counter-ions that a name gives are not always drawn.

In the first data set the target is T1, substance P receptors (Homo sapiens, UniProt P25103).
T1 construct: The receptor was prepared from human lymphoblast cells (IM-9); endogenous in cells; host or cells: IM-9 human lymphoblast cells (membrane preparation)
T1 sequence (P25103 whole entry): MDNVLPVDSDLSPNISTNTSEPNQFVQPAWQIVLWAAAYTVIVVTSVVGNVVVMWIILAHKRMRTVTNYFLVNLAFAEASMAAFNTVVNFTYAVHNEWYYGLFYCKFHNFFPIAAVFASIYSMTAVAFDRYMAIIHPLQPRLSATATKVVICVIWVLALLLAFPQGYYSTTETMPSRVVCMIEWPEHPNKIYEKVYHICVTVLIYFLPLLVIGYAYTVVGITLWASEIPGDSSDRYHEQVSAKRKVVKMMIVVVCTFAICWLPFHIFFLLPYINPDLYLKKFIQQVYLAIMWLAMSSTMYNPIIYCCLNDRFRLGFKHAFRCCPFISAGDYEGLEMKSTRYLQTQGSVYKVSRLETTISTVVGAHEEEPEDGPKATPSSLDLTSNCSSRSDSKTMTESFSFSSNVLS
Kind of data set: Radioligand receptor binding inhibitory activity using receptor from human lymphoblast cells (IM-9), 125I-BHSP. The note with it: radioligand 125I-BHSP, 25° C., 30 minutes, read-out: IC50 (concentration necessary to cause 50% inhibition). The method, then:
Radioligand receptor binding inhibitory activity (Binding inhibitory activity using receptor from human lymphoblast cells (IM-9))
The method of M. A. Cascieri et al., [Molecular Pharmacology, vol. 42, p. […] The receptor was prepared from human lymphoblast cells (IM-9). IM-9 cells (2×10^5 cells/mL) were incubated for 3 days (one liter), which was then subjected to centrifugation for 5 minutes at 500×G to obtain cell pellets. […] The residue was washed twice with 30 mL of the above-mentioned buffer, which was then preserved frozen (−80° C.) as a specimen of the receptor.
The specimen was suspended in a reaction buffer (50 mM Tri-HCl buffer (pH 7.4), 0.02% bovine serum albumin, 1 mM phenylmethylsulfonyl fluoride, 2 μg/mL chymostatin, 40 μg/mL bacitracin and 3 mM manganese chloride) to have protein in the concentration of 0.5 mg/mL of protein and 100 μL portion of the suspension was used in the reaction. […] The amount of nonspecific binding was determined by adding substance P at a final concentration of 2×10^−6 M.
After the reaction, using a cell harvester (290 PHD, Cambridge Technology, Inc., U.S.A.), filtration was carried out through a glass filter (GF/B, Whatman, U.S.A.), which was immersed in 0.1% polyethyleneimine for 24 hours and dried. After washing three times with 250 μL of 50 mM Tris-HCl buffer (pH 7.4) containing 0.02% bovine serum albumin, the radioactivity remaining on the filter was determined with a gamma counter.
On to `N#Cc1ccc(-c2ccc(OC(F)(F)F)c(CN[C@H]3CCN(C(=O)CO)C[C@H]3c3ccccc3)c2)c(F)c1` [Example 100, 2-fluoro-3′-({[(3R,4S)-1-glycoloyl-3-phenylpiperidin-4-yl]amino}methyl)-4′-(trifluoromethoxy)biphenyl-4-carbonitrile], for which the IC50 was determined as 0.015 nM.
The same measure, in the same setting: the value for `CC(=O)N1CCC(C(=O)N2CC[C@H](NCc3cc(-c4ccc(C#N)cc4F)ccc3OC(F)(F)F)[C@H](c3ccccc3)C2)CC1` [Example 101, 3′-[({(3R,4S)-1-[(1-acetylpiperidin-4-yl)carbonyl]-3-phenylpiperidin-4-yl}amino)methyl]-2-fluoro-4′-(trifluoromethoxy)biphenyl-4-carbonitrile] was 0.024 nM; that for `N#Cc1ccc(-c2ccc(OC(F)(F)F)c(CN[C@H]3CCN(C(=O)C4CC(=O)NC(=O)C4)C[C@H]3c3ccccc3)c2)c(F)c1` [Example 102, 3′-[({(3R,4S)-1-[(2,6-dioxopiperidin-4-yl)carbonyl]-3-phenylpiperidin-4-yl}amino)methyl]-2-fluoro-4′-(trifluoromethoxy)biphenyl-4-carbonitrile] was 0.013 nM.
Still for that read-out and setting: for `N#Cc1ccc(-c2ccc(OC(F)(F)F)c(CN[C@H]3CCN(C(=O)C(N)=O)C[C@H]3c3ccccc3)c2)c(F)c1` [Example 104, 2-[(3R,4S)-4-({[4′-cyano-2′-fluoro-4-(trifluoromethoxy)biphenyl-3-yl]methyl}amino)-3-phenylpiperidin-1-yl]-2-oxoacetamide] the value was 0.019 nM.
Same read-out and setting: for `CC1(C)OC(=O)N(CC(=O)N2CC[C@H](NCc3cc(-c4ccc(Cl)cc4)ccc3OC(F)(F)F)[C@H](c3ccccc3)C2)C1=O` [Example 116, 3-{2-[(3R,4S)-4-({[4′-chloro-4-(trifluoromethoxy)biphenyl-3-yl]methyl}amino)-3-phenylpiperidin-1-yl]-2-oxoethyl}-5,5-dimethyl-1;3-oxazolidine-2,4-dione] the value was 0.058 nM; for `O=C1CC(C(=O)N2CC[C@H](NCc3cc(-c4ccc(Cl)cc4F)ccc3OC(F)(F)F)[C@H](c3ccccc3)C2)CC(=O)N1` [Example 132, 4-{[(3R,4S)-4-({[4′-chloro-2′-fluoro-4-(trifluoromethoxy)biphenyl-3-yl]methyl}amino)-3-phenylpiperidin-1-yl]carbonyl}piperidine-2,6-dione], 0.14 nM.
For `CC1(C)OC(=O)N(CC(=O)N2CC[C@H](NCc3cc(-c4ccc(C#N)cc4)ccc3OC(F)(F)F)[C@H](c3ccccc3)C2)C1=O` [Example 137, 3′-[({(3R,4S)-1-[(5,5-dimethyl-2,4-dioxo-1,3-oxazolidin-3-yl)acetyl]-3-phenylpiperidin-4-yl}amino)methyl]-4′-(trifluoromethoxy)biphenyl-4-carbonitrile], the IC50 stood at 0.042 nM.

System in the next data set: not given
Assay: not given
Conditions: not given
`Cl.O=C1CC(C(=O)N2CC[C@H](NCc3cc(-c4ccc(Cl)cc4)ccc3OC(F)(F)F)[C@H](c3ccccc3)C2)CC(=O)N1`: the melting point was determined as 153 °C.
Still for that read-out and setting: the value for `CC1(C)OC(=O)N(CC(=O)N2CC[C@H](NCc3cc(-c4ccc(C#N)cc4F)ccc3OC(F)(F)F)[C@H](c3ccccc3)C2)C1=O` (as salt: hydrochloride) (hydrate or solvate) [Example 97, 3′-[({(3R,4S)-1-[(5,5-dimethyl-2,4-dioxo-1,3-oxazolidin-3-yl)acetyl]-3-phenylpiperidin-4-yl}amino)methyl]-2-fluoro-4′-(trifluoromethoxy)biphenyl-4-carbonitrile] was 198 to 200 °C; that for `CC1(C)OC(=O)N(CC(=O)N2CC[C@H](NCc3cc(-c4ccc(C#N)cc4)ccc3OC(F)(F)F)[C@H](c3ccccc3)C2)C1=O` (as salt: hydrochloride) (hydrate or solvate) [Example 137, 3′-[({(3R,4S)-1-[(5,5-dimethyl-2,4-dioxo-1,3-oxazolidin-3-yl)acetyl]-3-phenylpiperidin-4-yl}amino)methyl]-4′-(trifluoromethoxy)biphenyl-4-carbonitrile] was 197 to 199 °C; that for `O=C1CC(C(=O)N2CC[C@H](NCc3cc(-c4ccc(Cl)cc4F)ccc3OC(F)(F)F)[C@H](c3ccccc3)C2)CC(=O)N1` (as salt: hydrochloride) [Example 132, 4-{[(3R,4S)-4-({[4′-chloro-2′-fluoro-4-(trifluoromethoxy)biphenyl-3-yl]methyl}amino)-3-phenylpiperidin-1-yl]carbonyl}piperidine-2,6-dione] was 162 to 164 °C.
The same measure, in the same setting: for `N#Cc1ccc(-c2ccc(OC(F)(F)F)c(CN[C@H]3CCN(C(=O)CO)C[C@H]3c3ccccc3)c2)c(F)c1` [Example 100, 2-fluoro-3′-({[(3R,4S)-1-glycoloyl-3-phenylpiperidin-4-yl]amino}methyl)-4′-(trifluoromethoxy)biphenyl-4-carbonitrile] the value was 132 to 134 °C; for `N#Cc1ccc(-c2ccc(OC(F)(F)F)c(CN[C@H]3CCN(C(=O)C(N)=O)C[C@H]3c3ccccc3)c2)c(F)c1` [Example 104, 2-[(3R,4S)-4-({[4′-cyano-2′-fluoro-4-(trifluoromethoxy)biphenyl-3-yl]methyl}amino)-3-phenylpiperidin-1-yl]-2-oxoacetamide], 142 to 144 °C.
